Source: ChEMBL document CHEMBL1201862, “PubChem BioAssay data set” (2004)
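Tested at 5 concentrations; 48 h exposure; 96-well plates; endpoints linearly interpolated, else capped at highest concentration. GI50 is the concentration that inhibits growth by half.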 The source made the active and inactive calls. Rule as the data show it: active = GI50 up to about 1.1 µM and inactive = higher.

Key:
Experiment in all cases: NCI-60 cell line screen, 48 h
[1] = test system: 786-0
[2] = test system: A498
[3] = test system: A549
[4] = test system: ACHN
[5] = test system: BT-549
[6] = test system: CAKI-1
[7] = test system: CCRF-CEM
[8] = test system: COLO 205
[9] = test system: DU-145
[10] = test system: EKVX
[11] = test system: HCC 2998
[12] = test system: HCT-116
[13] = test system: HCT-15
[14] = test system: HL-60
[15] = test system: HOP-62
[16] = test system: HOP-92
[17] = test system: HT-29
[18] = test system: Hs-578T
[19] = test system: IGROV-1
[20] = test system: KM12
[21] = test system: LOX IMVI
[22] = test system: M14
[23] = test system: MCF7
[24] = test system: MDA-MB-231
[25] = test system: MDA-MB-435
[26] = test system: MDA-N
[27] = test system: MOLT-4
[28] = test system: Malme-3M
[29] = test system: NCI-H226
[30] = test system: NCI-H23
[31] = test system: NCI-H460
[32] = test system: NCI-H522
[33] = test system: NCI/ADR-RES
[34] = test system: OVCAR-3
[35] = test system: OVCAR-4
[36] = test system: OVCAR-5
[37] = test system: OVCAR-8
[38] = test system: PC-3
[39] = test system: RPMI-8226
[40] = test system: SF-268
[41] = test system: SF-295
[42] = test system: SF-539
[43] = test system: SK-MEL-28
[44] = test system: SK-MEL-2
[45] = test system: SK-MEL-5
[46] = test system: SK-OV-3
[47] = test system: SN12C
[48] = test system: SNB-19
[49] = test system: SR
[50] = test system: SW-620
[51] = test system: T47D
[52] = test system: TK-10
[53] = test system: U-251
[54] = test system: UACC-257
[55] = test system: UACC-62
[56] = test system: UO-31
[57] = test system: K562
[58] = test system: RXF 393
[59] = test system: SNB-75

Measured: GI50

CC(CCOc1ccc2ccc(=O)oc2c1)C1=CC(=O)C(C)(C)O1 (stereo unspecified)
inactive: [1] 2.2 µM | [2] 1.95 µM | [3] 2.87 µM | [4] 3.18 µM | [5] 2.72 µM | [6] 2.86 µM | [8] 2.42 µM | [9] 2.39 µM | [10] 2.68 µM | [11] 2.67 µM | [12] 2.64 µM | [14] 1.85 µM | [15] 5.12 µM | [16] 3.56 µM | [17] 3.3 µM | [18] 2.38 µM | [19] 3.2 µM | [20] 2.17 µM | [21] 2.23 µM | [22] 3.92 µM | [23] 3.61 µM | [24] 3.15 µM | [25] 2.56 µM | [26] 2.77 µM | [27] 2.12 µM | [28] 3.04 µM | [29] 7.35 µM | [30] 2.81 µM | [31] 1.86 µM | [32] 1.51 µM | [33] 2.12 µM | [34] 3.22 µM | [35] 5.73 µM | [36] 9.27 µM | [37] 1.96 µM | [38] 4.03 µM | [39] 1.95 µM | [40] 1.71 µM | [41] 3.94 µM | [42] 1.69 µM | [43] 2.9 µM | [44] 3.37 µM | [45] 5.13 µM | [46] 3.53 µM | [47] 1.67 µM | [48] 3.09 µM | [50] 1.92 µM | [51] 2.02 µM | [52] 3.34 µM | [53] 2.69 µM | [54] 6.73 µM | [55] 3.72 µM | [56] 3.05 µM
1.71 µM: [13]
active: [7] 0.499 µM | [49] 0.612 µM

O=CC(O)C(O)C(O)C(O)COC(=O)NCCCCC(=O)C(F)(F)C(F)(F)C(F)(F)C(F)(F)C(F)(F)C(F)(F)C(F)(F)F (stereo unspecified)
inactive: [1] 32.7 µM | [2] 20.7 µM | [3] 28.8 µM | [4] 30.2 µM | [5] 16.1 µM | [6] 49.8 µM | [7] 18.4 µM | [8] 30.5 µM | [9] 47.6 µM | [11] 24.5 µM | [12] 18 µM | [14] 27.4 µM | [15] 23.6 µM | [16] 13.2 µM | [17] 32.7 µM | [18] 22.4 µM | [19] 29.7 µM | [57] 11.8 µM | [20] 19.1 µM | [21] 15.3 µM | [22] 23.7 µM | [23] 19.1 µM | [24] 20 µM | [25] 24.2 µM | [26] 27.8 µM | [27] 10.7 µM | [28] > 100 µM | [30] 32.9 µM | [31] 26.9 µM | [33] > 100 µM | [34] 47 µM | [35] 51.8 µM | [36] 17.2 µM | [38] 14.3 µM | [39] 29.9 µM | [58] 18.3 µM | [40] 24.8 µM | [41] 23.2 µM | [42] 19.8 µM | [43] 43.7 µM | [44] 27.6 µM | [45] 23.7 µM | [46] 21.7 µM | [47] 32.4 µM | [48] 16 µM | [59] 22.9 µM | [49] 28.2 µM | [50] 19.9 µM | [51] > 100 µM | [52] 70.5 µM | [53] > 10 µM | [54] > 10 µM | [55] 15.9 µM | [56] > 100 µM
50.2 µM: [13]
